Experimental data from ChEMBL document CHEMBL6134779, “Design of Proteolytic-Resistant Antifungal Peptides by Utilizing Minimum d-Amino Acid Ratios” (J Med Chem, 2024).
≈ marks a conversion by molar mass, not a printed value. Calls of active or inactive are those of the source. No cut-off for these calls is given here.

Key:
Candida albicans [1] = experiment: Antifungal activity against Candida albicans CGMCC 2.2086 assessed as inhibition of fungal growth incubated for 48 hrs; type: functional
[2] = Proteolytic stability of the compound assessed as trypsin (unknown origin)-mediated drug degradation measured after 8 hrs by 16.5% tricine-SDS-PAGE analysis; type: ADME; conditions: human
[3] = Proteolytic stability of the compound assessed as chymotrypsin (unknown origin)-mediated drug degradation measured after 8 hrs by 16.5% tricine-SDS-PAGE analysis; type: ADME; conditions: human
Candida albicans [4] = experiment: Induction of Candida albicans CGMCC 2.2086 cell wall permeabilization at 16 uM by NPN probe based assay relative to control; type: functional
[5] = Stability of the compound in NaCl assessed as change in secondary structure by CD spectra analysis; type: physicochemical
[6] = Proteolytic stability of the compound assessed as trypsin (unknown origin)-mediated drug degradation measured after 8 hrs by RP-HPLC analysis; type: ADME; conditions: human
HEK293 = experiment: Cytotoxicity against HEK293 cells assessed as reduction in cell viability at 128 uM incubated for 4 hrs by MTT assay; type: toxicity, cell-based; conditions: human, hek293, 4 h
Candida albicans [7] = experiment: Fungicidal activity against Candida albicans CGMCC 2.2086 at 1X MIC measured within 90 mins by time-kill assay; type: functional, organism-based
Candida albicans [8] = experiment: Antifungal activity against Fluconazole-resistant Candida albicans 58288 assessed as inhibition of fungal growth incubated for 48 hrs; type: functional
Candida albicans [9] = experiment: Resistance development in Candida albicans CGMCC 2.2086 measured after 30 passages by broth microdilution method; type: functional, organism-based
Candida albicans [10] = experiment: Induction of morphological changes in Candida albicans CGMCC 2.2086 assessed as separation of cell wall from plasma membrane at 1X MIC measured after 60 mins by TEM analysis; type: functional, organism-based
Candida albicans [11] = experiment: Induction of morphological changes in Candida albicans CGMCC 2.2086 assessed as appearance of cell pits at 1X MIC measured after 60 mins by SEM analysis; type: functional, organism-based
[12] = Stability of the compound in MgCl2 assessed as change in secondary structure by CD spectra analysis; type: physicochemical
Candida albicans [13] = experiment: Induction of ROS generation in Candida albicans CGMCC 2.2086 measured after 60 mins by […] dye based fluorescence assay; type: functional, organism-based; conditions: dose 0.5-128 µM
Candida albicans [14] = experiment: Antifungal activity against Candida albicans SP3876 assessed as inhibition of fungal growth incubated for 48 hrs; type: functional
Candida albicans [15] = experiment: Antifungal activity against Candida albicans CGMCC 2.2086 infected in C57BL/6 mouse keratitis model assessed as reduction in fungal cell count at 5 mg/ml administered as 10 uL eye drop every 5 mins for first 1 hr and every 30 mins for next 7 hrs relative to control; type: functional; design: scale not given: the % may be the effect or the level left; conditions: route ou, time 8 hrs
Candida albicans [16] = experiment: Ratio of MIC95 for antifungal activity against Candida albicans CGMCC 2.2086 in presence of MgCl2 to MIC95 for MIC95 for antifungal activity against Candida albicans CGMCC 2.2086; type: functional
Candida albicans [17] = experiment: Antifungal activity against Candida albicans CGMCC 2.2086 assessed as inhibition of fungal growth incubated for 2 hrs in presence of trypsin; type: functional, organism-based
Candida albicans [18] = experiment: Antifungal activity against Candida albicans CGMCC 2.2086 assessed as inhibition of fungal growth incubated for 48 hrs in presence of FeCl3; type: functional
Candida albicans [19] = experiment: Antifungal activity against Candida albicans CGMCC 2.2086 infected in C57BL/6 mouse keratitis model assessed as reduction in mycelia in the eyes at 5 mg/ml administered as 10 uL eye drop every 5 mins for first 1 hr and every 30 mins for next 7 hrs by Schiff staining based assay; type: functional, organism-based; conditions: route ou, time 8.0 hrs
Candida albicans [20] = experiment: Antifungal activity against Candida albicans CGMCC 2.2086 assessed as inhibition of fungal growth incubated for 48 hrs in presence of ZnCl2; type: functional
Candida albicans [21] = experiment: Antifungal activity against Candida albicans CGMCC 2.2086 assessed as inhibition of fungal growth incubated for 48 hrs in presence of NaCl; type: functional
Candida albicans [22] = experiment: Induction of morphological changes in Candida albicans CGMCC 2.2086 assessed as appearance of cell holes at 1X MIC measured after 60 mins by SEM analysis; type: functional, organism-based
Candida albicans [23] = experiment: Antifungal activity against Candida albicans SP3902 assessed as inhibition of fungal growth incubated for 48 hrs; type: functional
Candida albicans [24] = experiment: Antifungal activity against Candida albicans CGMCC 2.2086 infected in C57BL/6 mouse keratitis model assessed as increase in ocular clarity at 5 mg/ml administered as 10 uL eye drop every 5 mins for first 1 hr and every 30 mins for next 7 hrs; type: functional, organism-based; conditions: route ou, time 8.0 hrs
Candida albicans [25] = experiment: Antifungal activity against Fluconazole-resistant Candida albicans 56214 assessed as inhibition of fungal growth incubated for 48 hrs; type: functional
Candida albicans [26] = experiment: Antifungal activity against Candida albicans CGMCC 2.2086 assessed as inhibition of fungal growth incubated for 48 hrs in presence of NH4Cl; type: functional
[27] = Proteolytic stability of the compound assessed as protease K (unknown origin)-mediated drug degradation measured after 8 hrs by 16.5% tricine-SDS-PAGE analysis; type: ADME; conditions: human
Candida albicans [28] = experiment: Antifungal activity against Candida albicans 56452 assessed as inhibition of fungal growth incubated for 48 hrs; type: functional
Candida albicans [29] = experiment: Antifungal activity against Candida albicans SP3931 assessed as inhibition of fungal growth incubated for 48 hrs; type: functional
Candida albicans [30] = experiment: Antifungal activity against Candida albicans 17546 assessed as inhibition of fungal growth incubated for 48 hrs; type: functional
[31] = Proteolytic stability of the compound assessed as chymotrypsin (unknown origin)-mediated drug degradation measured after 8 hrs by RP-HPLC analysis; type: ADME; conditions: human
[32] = Stability of the compound in NH4Cl assessed as change in secondary structure by CD spectra analysis; type: physicochemical
Candida albicans [33] = experiment: Antifungal activity against Candida albicans SP3903 assessed as inhibition of fungal growth incubated for 48 hrs; type: functional
Candida albicans [34] = experiment: Antibiofilm activity against Candida albicans CGMCC 2.2086 assessed as inhibition of biofilm formation at antifungal MIC measured after 48 hrs by crystal violet staining based assay; type: functional
[35] = Stability of the compound in CaCl2 assessed as change in secondary structure by CD spectra analysis; type: physicochemical
Cell membrane = experiment: Disruption of Candida albicans CGMCC 2.2086 cell membrane at 1X MIC measured after 1 hr by SYTO9/propidium iodide staining based fluorescence microscopic analysis; type: subcellular
[36] = Hemolytic activity in human red blood cells assessed as hemolysis rate at 512 uM incubated for 1 hr relative to control; type: toxicity, cell-based, Erythrocyte; conditions: read-out: Activity
Candida tropicalis = experiment: Antifungal activity against Candida tropicalis CGMCC 2.1975 assessed as inhibition of fungal growth incubated for 48 hrs; type: functional
[37] = Stability of the compound in ZnCl2 assessed as change in secondary structure by CD spectra analysis; type: physicochemical
[38] = Hemolytic activity in human red blood cells assessed as hemolysis incubated for 1 hr; type: toxicity, cell-based, Erythrocyte
Candida albicans [39] = experiment: Induction of morphological changes in Candida albicans CGMCC 2.2086 assessed as cell content leakage at 1X MIC measured after 60 mins by TEM analysis; type: functional, organism-based
Candida albicans [40] = experiment: Antifungal activity against Candida albicans CGMCC 2.2086 assessed as inhibition of fungal growth incubated for 48 hrs in presence of KCl; type: functional

Structure (SMILES): CC[C@H](C)[C@H](N)C(=O)N[C@H](C(=O)N[C@H](CCCNC(=N)N)C(=O)N[C@@H](CCCNC(=N)N)C(=O)N[C@@H](Cc1c[nH]cn1)C(=O)N[C@H](C(=O)N[C@H](C(=O)N[C@H](C(=O)N[C@H](C(=O)N[C@H](CCCNC(=N)N)C(=O)N[C@@H](CCCNC(=N)N)C(=O)N[C@@H](Cc1c[nH]cn1)C(=O)N[C@H](C(=O)N[C@H](C(=O)N[C@H](C(=O)N[C@H](C(=O)N[C@H](CCCNC(=N)N)C(=O)N[C@@H](CCCNC(=N)N)C(=O)N[C@@H](Cc1c[nH]cn1)C(=O)N[C@H](C(=O)N[C@H](C(N)=O)[C@@H](C)CC)[C@@H](C)CC)[C@@H](C)CC)[C@@H](C)CC)[C@@H](C)CC)[C@@H](C)CC)[C@@H](C)CC)[C@@H](C)CC)[C@@H](C)CC)[C@@H](C)CC)[C@@H](C)CC
- MIC95 (Candida albicans [1]): 4 µM (≈ 10.9 µg/mL)
- Stability [2]: Stable
- Stability [3]: Stable
- Activity (Candida albicans [4]): >100%
- Stability [5]: Unstable
- Stability [6]: Stable
- Activity (HEK293): Toxic
- Activity (Candida albicans [7]): Active; Eliminated All Fungal Organisms
- MIC95 (Candida albicans [8]): 2 µM (≈ 5.45 µg/mL)
- Activity (Candida albicans [9]): inactive
- Activity (Candida albicans [10]): Active
- Activity (Candida albicans [11]): Active
- Stability [12]: Stable
- Activity (Candida albicans [13]): Dose-dependent-effect
- MIC95 (Candida albicans [14]): 2 µM (≈ 5.45 µg/mL)
- Activity (Candida albicans [15]): >65%
- Ratio (Candida albicans [16]): 4
- Activity (Candida albicans [17]): Active
- MIC95 (Candida albicans [18]): 8 µM
- Activity (Candida albicans [19]): Active; Mycelia In The Eyes Was Either Absent Or Minimal
- MIC95 (Candida albicans [20]): 4 µM
- MIC95 (Candida albicans [21]): 16 µM
- Activity (Candida albicans [22]): Active
- MIC95 (Candida albicans [23]): 2 µM (≈ 5.45 µg/mL)
- Activity (Candida albicans [24]): Active
- MIC95 (Candida albicans [25]): 4 µM (≈ 10.9 µg/mL)
- MIC95 (Candida albicans [26]): 2 µM
- Stability [27]: Stable
- MIC95 (Candida albicans [28]): 2 µM (≈ 5.45 µg/mL)
- MIC95 (Candida albicans [29]): 2 µM (≈ 5.45 µg/mL)
- MIC95 (Candida albicans [30]): 4 µM (≈ 10.9 µg/mL)
- Stability [31]: Stable
- Stability [32]: Stable
- MIC95 (Candida albicans [33]): 2 µM (≈ 5.45 µg/mL)
- inhibition (INH) (Candida albicans [34]): 90%
- Stability [35]: Stable
- Activity (Cell membrane): Active
- hemolysis at 1 h, 512 µM [36]: 40.8%
- MIC95 (Candida tropicalis): 2 µM (≈ 5.45 µg/mL)
- Stability [37]: Stable
- HC50 at 1 h [38]: > 512 µM
- Activity (Candida albicans [39]): Active
- MIC95 (Candida albicans [40]): 4 µM
